Data reported in US10280171B2, “Heterocyclic inhibitors of PTPN11” (priority 2016, dated 2019).
pIC50: −log10 of the molar value. Where two headings read alike, the source gives them in different places.

Assays:
[1] = biological target: PTPN11-E76K mutant enzyme (Homo sapiens (Human), UniProt Q06124, E76K); test: PTPN11 Enzymatic Assay (DiFMUP phosphatase activity); format: biochemical; details: DiFMUP 50 μM, 30 min preincubation
Procedure: Reaction was initiated by addition of DiFMUP (50 μM) at room temperature in 384-well black plate with a final reaction volume of 20 uL in assay buffer. […] Dose-response curves were analyzed using IC50 regression curve fitting (GeneData Screener). Curves were normalized to a high controls without inhibitor, and low controls without enzyme.

[2] = tested on: Phospho-ERK levels in KYSE-520 cells; test: ERK Phosphorylation (Phospho-ERK) Target Engagement Assay (HTRF); format: cell-based; details: Homo sapiens, 2 hr compound incubation, phospho-ERK1/2 HTRF kit, read-out: pERK target engagement assay Avg IC50
Procedure: KYSE-520 cells (10 k cells/well) are plated onto 384-well plate in 20 uL of medium (RPMI-1640, without phenol red, containing 10% FBS) and incubated at 37° C., 5% CO2 16 h. DMSO (control) or increasing concentrations of compounds are diluted in medium, added to the 384-well plate (10 uL/well, final DMSO concentration of 0.5-1%), and cells are then incubated with compounds for 2 hr. Phospho-ERK levels are measured using a TR-FRET based phospho-ERK1/2 HTRF kit (CisBio, 64ERKPEH) following manufacturer's recommendations, and fluorescence signal was measured at 665 nm and 620 nm using Synergy Neo plate reader. Dose-response curves were analyzed using IC50 regression curve fitting (GeneData Screener). Curves were normalized to a high controls without inhibitor, and low controls with 1 μM of selumetinib.

[3] = tested on: Phospho-ERK levels in KYSE-520 cells; test: pERK AlphaScreen Protocol; format: cell-based; details: KYSE-520 cells, 2 hr compound incubation, phospho-ERK1/2 AlphaScreen SureFire, read-out: PERK Avg IC50
Procedure, shortened: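 After overnight growth at 10 k cells/well in RPMI-1640 with 10% FBS, KYSE-520 cells received compound dilutions for 2 h at 1% final DMSO.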

[4] = full length PTPN11-E76K mutant enzyme 250 pM, read-out: PTPN11-E76K Avg IC50

PTPN11-E76K mutant enzyme, sequence (Q06124 whole entry E76K): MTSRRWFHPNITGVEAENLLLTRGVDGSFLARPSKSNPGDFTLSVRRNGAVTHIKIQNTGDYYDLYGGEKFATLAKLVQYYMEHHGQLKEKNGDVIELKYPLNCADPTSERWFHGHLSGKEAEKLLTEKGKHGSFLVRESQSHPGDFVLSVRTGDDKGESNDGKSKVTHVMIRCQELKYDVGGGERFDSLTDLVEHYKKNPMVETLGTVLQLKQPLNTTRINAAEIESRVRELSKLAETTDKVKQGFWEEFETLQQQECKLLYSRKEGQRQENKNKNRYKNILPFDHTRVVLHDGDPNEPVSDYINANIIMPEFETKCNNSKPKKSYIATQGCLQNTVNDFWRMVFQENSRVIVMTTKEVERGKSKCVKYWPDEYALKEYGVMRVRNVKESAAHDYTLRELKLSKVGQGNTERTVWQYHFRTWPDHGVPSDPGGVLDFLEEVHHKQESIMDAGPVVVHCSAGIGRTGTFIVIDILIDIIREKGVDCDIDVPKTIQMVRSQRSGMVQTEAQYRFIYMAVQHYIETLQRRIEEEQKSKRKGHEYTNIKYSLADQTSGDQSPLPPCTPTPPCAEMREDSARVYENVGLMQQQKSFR

SMILES	pIC50 [1, 4]	pIC50 [2]	pIC50 ([3]; Homo sapiens, KYSE-520, 2 h)	pIC50 ([1]; PTPN11-E76K Avg IC50, full length PTPN11-E76K mutant enzyme 250 pM)	pIC50 [3]
N[C@@H]1[C@H]2CN(c3cnc4c(-c5cccc(Cl)c5Cl)n[nH]c4n3)C[C@@H]12 [Example 3, (1R,5S,6S)-3-(3-(2,3-dichlorophenyl)-1H-pyrazolo[3,4-b]-pyrazin-6-yl)-3-aza-bicyclo[3.1.0]hexan-6-amine]	5.97	6.49			
CNC1(C)CCN(c2cnc3c(-c4cccc(Cl)c4Cl)n[nH]c3n2)CC1 [Example 6, 1-(3-(2,3-Dichlorophenyl)-1H-pyrazolo[3,4-b]-pyrazin-6-yl)-N,4-dimethylpiperidin-4-amine]	8.70	6.91			
CC1(N)CCN(c2cnc3c(-c4cccc(N)c4Cl)n[nH]c3n2)CC1 [Example 105, 1-(3-(3-amino-2-chlorophenyl)-1H-pyrazolo[3,4-b]pyrazin-6-yl)-4-methylpiperidin-4-amine]	6.72		6.92		
CC1(N)CCN(c2cnc3c(-c4cccc(Cl)c4)n[nH]c3n2)CC1 [Example 10, 1-(3-(3-chloro-phenyl)-1H-pyrazolo[3,4-b]-pyrazin-6-yl)-4-methylpiperidin-4-amine]	6.48		6.76		
Nc1nccc(-c2n[nH]c3nc(N4CCC5(CCC[C@H]5N)CC4)cnc23)c1Cl [Example 130, (1R)-8-[3-(2-amino-3-chloropyridin-4-yl)-1H-pyrazolo[3,4-b]pyrazin-6-yl]-8-azaspiro[4.5]decan-1-amine]	7.08		7.19		
CC1(N)CCN(c2cnc3c(-c4ccc(F)c(Cl)c4)n[nH]c3n2)CC1 [Example 19, 1-(3-(3-Chloro-4-fluorophenyl)-1H-pyrazolo[3,4-b]-pyrazin-6-yl)-4-methylpiperidin-4-amine]	6.29		6.27		
Clc1cccc(-c2n[nH]c3nc(N4CCC5(CCN5)CC4)cnc23)c1Cl [Example 7, 3-(2,3-dichloro-phenyl)-6-(1,7-diaza-spiro[3.5]nonan-7-yl)-1H-pyrazolo[3,4-b]pyrazine]	6.71		7.10		
N[C@@H]1COCC12CCN(c1cnc3c(-c4c(F)cccc4Cl)n[nH]c3n1)CC2 [Example 40, (4S)-8-(3-(2-Chloro-6-fluorophenyl)-1H-pyrazolo[3,4-b]-pyrazin-6-yl)-2-oxa-8-azaspiro[4.5]-decan-4-amine]	6.69		6.73		
CC1(CN)CCN(c2cnc3c(-c4ccc(F)c(Cl)c4)n[nH]c3n2)CC1 [Example 14, (1-(3-(3-Chloro-4-fluorophenyl)-1H-pyrazolo[3,4-b]-pyrazin-6-yl)-4-methylpiperidin-4-yl) methanamine]	6.28		6.24		
NC1C(F)(F)CCC12CCN(c1cnc3c(-c4cccc(Cl)c4Cl)n[nH]c3n1)CC2 (single isomer, unassigned) [Example 65B, 8-(3-(2,3-Dichlorophenyl)-1H-pyrazolo[3,4-b]pyrazin-6-yl)-2,2-difluoro-8-azaspiro[4.5]decan-1-amine]				6.33	6.78
Nc1nccc(-c2n[nH]c3nc(N4CCC5(CC4)COC[C@H]5N)cnc23)c1Cl [Example 116, (S)-8-(3-(2-Amino-3-chloropyridin-4-yl)-1H-pyrazolo[3,4-b]pyrazin-6-yl)-2-oxa-8-azaspiro[4.5]decan-4-amine]	6.88		6.32		
CC1(CN)CCN(c2cnc3c(-c4cccnc4Cl)n[nH]c3n2)CC1 [Example 36, (1-(3-(2-chloro-pyridin-3-yl)-1H-pyrazolo[3,4-b]-pyrazin-6-yl)-4-methylpiperidin-4-yl) methanamine]	6.01		6.49		
CC1(N)CCN(c2cnc3c(-c4ccc(Cl)cc4)n[nH]c3n2)CC1 [Example 15, 1-(3-(4-Chlorophenyl)-1H-pyrazolo[3,4-b]pyrazin-6-yl)-4-methylpiperidin-4-amine]	6.85		6.99		
N[C@@H]1CCCC12CCN(c1cnc3c(-c4cccc(Cl)c4F)n[nH]c3n1)CC2 [Example 49, (R)-8-(3-(3-chloro-2-fluorophenyl)-1H-pyrazolo[3,4-b]-pyrazin-6-yl)-8-aza-spiro[4.5]decan-1-amine]	6.84		7.21		
CNc1nccc(-c2n[nH]c3nc(N4CCC5(CCC[C@H]5N)CC4)cnc23)c1Cl [Example 111, (R)-8-(3-(3-Chloro-2-(methylamino)pyridin-4-yl)-1H-pyrazolo[3,4-b]pyrazin-6-yl)-8-azaspiro[4.5]decan-1-amine]	7.37		7.70		
NCC1(O)CCN(c2cnc3c(-c4cc(N)ncc4Cl)n[nH]c3n2)CC1 [Example 134, 1-[3-(2-amino-5-chloropyridin-4-yl)-1H-pyrazolo[3,4-b]-pyrazin-6-yl]-4-(aminomethyl)-piperidin-4-ol]	5.81		5.70		
CC1(CN)CCN(c2cnc3c(-c4cccc(Cl)c4Cl)n[nH]c3n2)CC1 [Example 4, (1-(3-(2,3-dichloro-phenyl)-1H-pyrazolo[3,4-b]-pyrazin-6-yl)-4-methylpiperidin-4-yl)methanamine]		7.14			
N[C@@H]1CCCC12CCN(c1cnc3c(-c4ccc(Cl)cc4)n[nH]c3n1)CC2 [Example 17, (R)-8-(3-(4-chloro-phenyl)-1H-pyrazolo[3,4-b]-pyrazin-6-yl)-8-aza-spiro[4.5]decan-1-amine]	6.93		7.09		
CC1(CN)CCN(c2cnc3c(-c4ccc(Cl)c(Cl)c4)n[nH]c3n2)CC1 [Example 13, (1-(3-(3,4-dichloro-phenyl)-1H-pyrazolo[3,4-b]-pyrazin-6-yl)-4-methylpiperidin-4-yl) methanamine]	6.80		6.25		
CC1(CN)CCN(c2cnc3c(-c4cc(Cl)cc(Cl)c4)n[nH]c3n2)CC1 [Example 11, (1-(3-(3,5-dichloro-phenyl)-1H-pyrazolo[3,4-b]-pyrazin-6-yl)-4-methylpiperidin-4-yl) methanamine]	6.20		5.93		
CC1(CN)CCN(c2cnc3c(-c4ccc(Cl)cc4)n[nH]c3n2)CC1 [Example 16]	6.77		6.51		
CC1(CN)CCN(c2cnc3c(-c4ccncc4Cl)n[nH]c3n2)CC1 [Example 31, (1-(3-(3-chloro-pyridin-4-yl)-1H-pyrazolo[3,4-b]-pyrazin-6-yl)-4-methylpiperidin-4-yl) methanamine]	6.03		6.15		
Cc1ncccc1-c1n[nH]c2nc(N3CCC(C)(CN)CC3)cnc12 [Example 30, (4-methyl-1-(3-(2-methylpyridin-3-yl)-1H-pyrazolo[3,4-b]pyrazin-6-yl)-piperidin-4-yl) methanamine]	5.60		5.80		
COc1cc(-c2n[nH]c3nc(N4CCC(C)(CN)CC4)cnc23)ccc1Cl [Example 33, (1-(3-(4-Chloro-3-methoxyphenyl)-1H-pyrazolo[3,4-b]pyrazin-6-yl)-4-methylpiperidin-4-yl)methanamine]	7.14		7.02		
N[C@@H]1CCCC12CCN(c1cnc3c(-c4cccc(Cl)c4)n[nH]c3n1)CC2 [Example 44, (R)-8-(3-(3-chloro-phenyl)-1H-pyrazolo[3,4-b]-pyrazin-6-yl)-8-aza-spiro[4.5]-decan-1-amine]	6.37		6.52		
Cc1ncccc1-c1n[nH]c2nc(N3CCC4(CCC[C@H]4N)CC3)cnc12 [Example 55, (R)-8-(3-(2-methyl-pyridin-3-yl)-1H-pyrazolo[3,4-b]-pyrazin-6-yl)-8-azaspiro[4.5]decan-I -amine]	5.94		6.15		
CC1(N)CCN(c2cnc3c(-c4ccnc(O)c4Cl)n[nH]c3n2)CC1 [Example 117, 4-(6-(4-Amino-4-methylpiperidin-1-yl)-1H-pyrazolo[3,4-b]pyrazin-3-yl)-3-chloropyridin-2-ol]	5.71		5.32		
NCC1(O)CCN(c2cnc3c(-c4cccc(Cl)c4Cl)n[nH]c3n2)CC1 [Example 8, 4-(aminomethyl)-1-(3-(2,3-dichloro-phenyl)-1H-pyrazolo[3,4-b]-pyrazin-6-yl)-piperidin-4-ol]	6.69		7.07		
Clc1cccc(-c2n[nH]c3nc(N4CCC5(CCNC5)CC4)cnc23)c1Cl [Example 2, 8-(3-(2,3-dichloro-phenyl)-1H-pyrazolo[3,4-b]-pyrazin-6-yl)-2,8-diazaspiro-[4.5]decane]	6.10	6.77			
CC1(N)CCN(c2cnc3c(-c4cc(Cl)cc(Cl)c4)n[nH]c3n2)CC1 [Example 12, 1-(3-(3,5-dichloro-phenyl)-1H-pyrazolo[3,4-b]-pyrazin-6-yl)-4-methylpiperidin-4-amine]	6.39		6.21		
